Experiments:
Type in all cases: functional
Staphylococcus aureus [1] = assay: Antibacterial activity against Staphylococcus aureus […] by MTT assay
Staphylococcus aureus [2] = assay: Antibacterial activity against floroquinilone-resistant Staphylococcus aureus SA1199B by MTT assay
Staphylococcus aureus [3] = assay: Antibacterial activity against epidemic methicillin-resistant Staphylococcus aureus isolate 15 by MTT assay
Staphylococcus aureus [4] = assay: Antibacterial activity against epidemic methicillin-resistant Staphylococcus aureus isolate 16 by MTT assay

Measured: MIC

C=C1C(=O)[C@@]23CC[C@@H]4[C@H](C(=O)OC)C[C@@H](O)C[C@@]4(C)[C@@H]2CC[C@H]1C3
128 µg/mL: all assays above
